Laboratory results reported in US20040122096A1, “Use of inhibitors of the cellular Na+/H+ exchanger (NHE) for preparing a medicament for normalizing serum lipids” (Hoechst Aktiengesellschaft, priority 1996, published 2004).

Tested on: male New Zealand white rabbits
Assay: Serum total cholesterol and lipoprotein fractions in rabbits after 30 days feeding
Format: in vivo, rabbit
Conditions: mean ± SEM
Text: This antihyperlipidemic action is shown for an NHE inhibitor, 4-isopropyl-3-methylsulfonylbenzoylguanidine methanesulfonate (Hoe 642), in the following table, male New Zealand white rabbits (n=28) having a weight of 3-4 kg being used and divided into four groups of 7 animals in each case randomized as described below: 1) standard rabbit feed (®Altromin 2834), 2) atherogenic diet having a content of 0.25% cholesterol and 3% coconut oil, 3) standard rabbit feed+Hoe 642 (0.1%), 4) atherogenic diet+Hoe 642 (0.1%). Blood samples were taken once after 30 days feeding by puncture of the auricular artery. Serum was obtained from the blood. The total cholesterol was measured from the serum by means of the CHOD (cholesterol oxidase)-PAP method (Merckotest, Merck Diagnostics, E. Merck, 64271 Darmstadt, Germany). The separation of the lipoproteins was carried out, likewise from the serum, by FPLC (fast protein liquid chromatography) method (März et al. 1993, Clin. Chem. 39/11:2276-2281).

[1] = atherogenic diet (0.25% cholesterol, 3% coconut oil) + Hoe 642 0.1%
[2] = normal diet (standard rabbit feed) + Hoe 642 0.1%

Q: For `CC(C)c1ccc(C(=O)NC(=N)N)cc1S(C)(=O)=O` [HOE 642, 4-isopropyl-3-methylsulfonylbenzoylguanidine methanesulfonate], which “LDL (serum cholesterol fraction)” value [1] is on record?
A: 2.1 ± 0.2 mmol/L

Q: And the “Total cholesterol (serum)” value [1]?
A: 7.95 ± 0.89 mmol/L

Q: What about the “VLDL (serum cholesterol fraction)” value [1] of the same compound?
A: 4.6 ± 0.6 mmol/L

Q: What about the “LDL (serum cholesterol fraction)” value [2] of the same compound?
A: 0.23 ± 0.04 mmol/L

Q: And the “Total cholesterol (serum)” value [2]?
A: 0.69 ± 0.1 mmol/L

Q: And the “VLDL (serum cholesterol fraction)” value [2]?
A: 0.05 ± 0.02 mmol/L
